From ChEMBL document CHEMBL1153275, “Tyrokeradines A and B, new bromotyrosine alkaloids with an imidazolyl-quinolinone moiety from a verongid sponge” (2009)
Converted amounts (≈) assume the structure as drawn.

Experiments:
Type in all cases: functional
[1] = system: Micrococcus luteus; experiment: Antimicrobial activity against Micrococcus luteus
[2] = system: Staphylococcus aureus; experiment: Antimicrobial activity against Staphylococcus aureus
[3] = system: Trichophyton mentagrophytes; experiment: Antimicrobial activity against Trichophyton mentagrophytes
[4] = system: Cryptococcus neoformans; experiment: Antimicrobial activity against Cryptococcus neoformans
[5] = system: Candida albicans; experiment: Antimicrobial activity against Candida albicans
[6] = system: Aspergillus niger; experiment: Antimicrobial activity against Aspergillus niger

| MIC [1] [µg/mL] | MIC [2] [µg/mL] | MIC [3] [µg/mL] | MIC [4] [µg/mL] | MIC [5] [µg/mL] | MIC [6] [µg/mL] | Structure (SMILES) |
| --- | --- | --- | --- | --- | --- | --- |
| > 25 | > 25 | > 25 | > 25 | > 25 | > 25 | C[N+](C)(C)CCCOc1c(Br)cc(C/C(=N\O)C(=O)NCCc2nc(N)[nH]c2-c2cc(O)c3[nH]cc(O)c(=O)c3c2O)cc1Br [TYROKERADINE A] |
| 25 (≈ 35.2 µM) | 25 (≈ 35.2 µM) | 25 (≈ 35.2 µM) | 12.5 (≈ 17.6 µM) | 12.5 (≈ 17.6 µM) | 12.5 (≈ 17.6 µM) | NCCCOc1c(Br)cc(C/C(=N\O)C(=O)NCCc2nc(N)[nH]c2-c2cc(O)c3[nH]cc(O)c(=O)c3c2O)cc1Br [TYROKERADINE B] |
